Results published in ChEMBL document CHEMBL3407331, “Discovery of AM-7209, a potent and selective 4-amidobenzoic acid inhibitor of the MDM2-p53 interaction” (J Med Chem, 2014).

Legend:
SJSA-1 = assay: cells; conditions: Homo sapiens, SJSA-1, 16 h
CYP3A4 [1] = target: T1, CYP3A4 (Homo sapiens, UniProt P08684); assay: Time-dependent inhibition of CYP3A4 (unknown origin) assessed as remaining activity at 10 uM after 30 mins; assay type: ADME; conditions: read-out: Activity
PXR (NR1I2) = target: T2, PXR (NR1I2) (Homo sapiens, UniProt O75469); assay: Activation of human PXR at 2 uM relative to control; assay type: ADME; conditions: read-out: Activity
T2 sequence (O75469 whole entry): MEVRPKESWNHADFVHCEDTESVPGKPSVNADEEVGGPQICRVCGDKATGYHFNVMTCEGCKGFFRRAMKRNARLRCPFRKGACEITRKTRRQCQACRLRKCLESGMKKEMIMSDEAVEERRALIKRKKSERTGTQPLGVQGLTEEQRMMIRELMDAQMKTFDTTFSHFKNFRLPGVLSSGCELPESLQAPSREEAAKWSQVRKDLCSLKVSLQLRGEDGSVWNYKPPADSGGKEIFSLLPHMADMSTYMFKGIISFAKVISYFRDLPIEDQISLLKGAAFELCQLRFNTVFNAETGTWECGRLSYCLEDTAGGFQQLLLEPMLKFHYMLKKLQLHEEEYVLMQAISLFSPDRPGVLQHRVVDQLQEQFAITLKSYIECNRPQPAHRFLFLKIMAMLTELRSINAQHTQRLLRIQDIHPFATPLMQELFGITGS

CYP3A4 [2] = target: T1, CYP3A4; assay: Inhibition of CYP3A4 (unknown origin) at 3 uM; assay type: ADME

T1 sequence (P08684 whole entry): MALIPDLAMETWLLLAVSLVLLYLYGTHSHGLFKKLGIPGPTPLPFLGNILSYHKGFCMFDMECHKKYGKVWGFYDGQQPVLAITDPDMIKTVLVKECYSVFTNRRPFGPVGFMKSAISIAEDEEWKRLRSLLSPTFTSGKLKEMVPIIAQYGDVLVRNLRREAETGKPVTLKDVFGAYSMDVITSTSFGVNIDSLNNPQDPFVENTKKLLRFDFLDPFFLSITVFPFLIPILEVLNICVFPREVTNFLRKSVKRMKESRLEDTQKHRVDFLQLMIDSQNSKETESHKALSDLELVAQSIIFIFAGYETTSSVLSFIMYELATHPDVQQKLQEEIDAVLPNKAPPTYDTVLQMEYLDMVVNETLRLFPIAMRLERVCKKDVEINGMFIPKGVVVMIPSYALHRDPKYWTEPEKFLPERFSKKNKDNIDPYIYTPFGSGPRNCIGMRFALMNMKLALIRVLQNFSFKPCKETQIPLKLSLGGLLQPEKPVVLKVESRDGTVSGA

| SMILES | IC50 (SJSA-1) | activity at 0.5 h, 10 µM (CYP3A4 [1]) | activity at 2 µM (PXR (NR1I2)) | inhibition at 3 µM (CYP3A4 [2]) |
| --- | --- | --- | --- | --- |
| CC(C)(C)S(=O)(=O)C[C@H](C1CC1)N1C(=O)[C@@](C)(CC(=O)N[C@H]2CC[C@H](C(=O)O)CC2)C[C@H](c2cccc(Cl)c2)[C@H]1c1ccc(Cl)cc1 | 7.5 nM |  |  |  |
| CC(C)(C)S(=O)(=O)C[C@H](C1CC1)N1C(=O)[C@@](C)(CC(=O)N[C@H]2CC[C@@H](C(=O)O)CC2)C[C@H](c2cccc(Cl)c2)[C@H]1c1ccc(Cl)cc1 | 17 nM |  |  |  |
| CC(C)(C)S(=O)(=O)C[C@H](C1CC1)N1C(=O)[C@@](C)(CC(=O)Nc2ccc(C#N)cc2)C[C@H](c2cccc(Cl)c2)[C@H]1c1ccc(Cl)cc1 | 138 nM |  |  |  |
| CC1(C(=O)O)CCN(C(=O)C[C@@]2(C)C[C@H](c3cccc(Cl)c3)[C@@H](c3ccc(Cl)cc3)N([C@H](CS(=O)(=O)C(C)(C)C)C3CC3)C2=O)CC1 | 6.8 nM |  |  |  |
| CC(C)(C)S(=O)(=O)C[C@H](C1CC1)N1C(=O)[C@@](C)(CC(=O)N[C@H]2C[C@H](C(=O)O)C2)C[C@H](c2cccc(Cl)c2)[C@H]1c1ccc(Cl)cc1 | 13.5 nM |  |  |  |
| CC(C)(C)S(=O)(=O)C[C@H](C1CC1)N1C(=O)[C@@](C)(CC(=O)Nc2ccc(C(=O)O)cc2)C[C@H](c2cccc(Cl)c2)[C@H]1c1ccc(Cl)cc1 | 2.9 nM | 78% | 0% | < 10% |
| COc1cc(NC(=O)C[C@@]2(C)C[C@H](c3cccc(Cl)c3)[C@@H](c3ccc(Cl)cc3)N([C@H](CS(=O)(=O)C(C)(C)C)C3CC3)C2=O)ccc1C(N)=O | 15 nM |  |  |  |
| COc1cc(NC(=O)C[C@@]2(C)C[C@H](c3cccc(Cl)c3)[C@@H](c3ccc(Cl)cc3)N([C@H](CS(=O)(=O)C(C)(C)C)C3CC3)C2=O)ccc1C(=O)O | 1.9 nM | 85% | 14% | 14% |
| CC(C)(C)S(=O)(=O)C[C@H](C1CC1)N1C(=O)[C@@](C)(CC(=O)Nc2ccccc2C(=O)O)C[C@H](c2cccc(Cl)c2)[C@H]1c1ccc(Cl)cc1 | 45 nM |  |  |  |
| CC(C)(C)S(=O)(=O)C[C@H](C1CC1)N1C(=O)[C@@](C)(CC(=O)NC23CCC(C(=O)O)(CC2)CC3)C[C@H](c2cccc(Cl)c2)[C@H]1c1ccc(Cl)cc1 | 5.9 nM | 75% | 0% | < 10% |
| CC(C)(C)S(=O)(=O)C[C@H](C1CC1)N1C(=O)[C@@](C)(CC(=O)N[C@H]2C[C@@H](C(=O)O)C2)C[C@H](c2cccc(Cl)c2)[C@H]1c1ccc(Cl)cc1 | 22 nM |  |  |  |
